Experimental findings from US10730884B2, “Substituted indole compound derivatives as dengue viral replication inhibitors” (Janssen Pharmaceuticals, Inc., priority 2016, dated 2020) are described below.

Broadly, the pEC50 is the negative decadic logarithm of the EC50, by convention in mol/L.

Molecules are shown by their SMILES. pEC50: −log10 of the molar value. Where only a bound is given, the exact number is not on record here.

One data set relates to Vero cells. The conditions noted are these: African green monkey.
The subject of the next data set is DENV-2 16681 strain. The data set can be described thus: DENV-2 antiviral assay (eGFP-labeled virus, Vero cells). Type of data set: cell-based, Dengue virus. The conditions noted are these: for pEC50: DENV-2 16681 eGFP, Vero cells, MOI 0.5, 3 days; for SI: SI=CC50/EC50, DENV-2 antiviral assay. The protocol:
The antiviral activity of all the compounds of the invention was tested against the DENV-2 16681 strain which was labeled with enhanced green fluorescent protein (eGPF). The culture medium consists of minimal essential medium supplemented with 2% of heat-inactivated fetal calf serum, 0.04% gentamycin (50 mg/mL) and 2 mM of L-glutamine. Vero cells, obtained from ECACC, were suspended in culture medium and 25 μL was added to 384-well plates (2500 cells/well), which already contain the antiviral compounds. Typically, these plates contain a 5-fold serial dilution of 9 dilution steps of the test compound at 200 times the final concentration in 100% DMSO (200 nL). […] Finally, each plate contains wells which are assigned as virus controls (containing cells and virus in the absence of compound), cell controls (containing cells in the absence of virus and compound) and medium controls (containing medium in the absence of cells, virus and compounds). To the wells assigned as medium control, 25 μL of culture medium was added instead of Vero cells. Once the cells were added to the plates, the plates were incubated for 30 minutes at room temperature to allow the cells to distribute evenly within the wells. Next, the plates were incubated in a fully humidified incubator (37° C., 5% CO2) until the next day. Then, DENV-2 strain 16681, labeled with eGFP, was added at a multiplicity of infection (MOI) of 0.5. Therefore, 15 μL of virus suspension was added to all the wells containing test compound and to the wells assigned as virus control. In parallel, 15 μL of culture medium was added to the medium and cell controls. Next, the plates were incubated for 3 days in a fully humidified incubator (37° C., 5% CO2). At the day of the read out, the eGFP fluorescence was measured using an automated fluorescence microscope at 488 nm (blue laser). Using an in-house LIMS system, inhibition dose response curves for each compound were calculated and the half maximal effective concentration (EC50) was determined. Therefore, the percent inhibition (I) for every test concentration is calculated using the following formula: I=100*([…])/(SVC−SCC); ST, SCC and SVC are the amount of eGFP signal in the test compound, cell control and virus control wells, respectively. The EC50 represents the concentration of a compound at which the virus replication is inhibited with 50%, as measured by a 50% reduction of the eGFP fluorescent intensity compared to the virus control. The EC50 is calculated using linear interpolation (Table 1).

For a further data set, the system named is DENV-3 strain H87. As to the kind of experiment: Tetravalent RT-qPCR assay, serotype 3. Type of data set: cell-based, Dengue virus. The following applies: for pEC50: Dengue virus, DENV3, Vero, 72 h, RT-qPCR serotype 3 H87, Protocol A, Vero cells, day 3, read-out: EC50; for SI: RT-qPCR serotype 3 H87. As to the method: (§1) The antiviral activity of the compounds of the invention was tested against DENV-1 strain TC974#666 (NCPV), DENV-2 strain 16681, DENV-3 strain H87 (NCPV) and DENV-4 strain H241 (NCPV) in a RT-qPCR assay. Therefore, Vero cells were infected with either DENV-1, or -2, or -3, or -4 in the presence or absence of test compounds. At day 3 post-infection, the cells were lysed and cell lysates were used to prepare cDNA of both a viral target (the 3′UTR of DENV; Table 2) and a cellular reference gene (β-actin, Table 2). Subsequently, a duplex real time PCR was performed on a Lightcycler480 instrument. The generated Cp value is inversely proportional to the amount of RNA expression of these targets. Inhibition of DENV replication by a test compound result in a shift of Cp's for the 3′UTR gene. On the other hand, if a test compound is toxic to the cells, a similar effect on β-actin expression will be observed. The comparative ΔΔCp method is used to calculate EC50, which is based on the relative gene expression of the target gene (3′UTR) normalized with the cellular housekeeping gene (β-actin). In addition, CC50 values are determined based on the Cp values acquired for the housekeeping gene β-actin.
(§2) The culture medium consisted of minimal essential medium supplemented with 2% of heat-inactivated fetal calf serum, 0.04% gentamycin (50 mg/mL) and 2 mM of L-glutamine. Vero cells, obtained from ECACC, were suspended in culture medium and 75 μL/well was added in 96-well plates (10000 cells/well), which already contain the antiviral compounds. […] In addition, each plate contains wells which are assigned as virus controls (containing cells and virus in the absence of compound) and cell controls (containing cells in the absence of virus and compound). Once the cells were added in the plates, the plates were incubated in a fully humidified incubator (37° C., 5% CO2) until the next day. Dengue viruses serotype-1, 2, 3 and 4 were diluted in order to obtain a Cp of ˜22-24 in the assay. Therefore, 25 μL of virus suspension was added to all the wells containing test compound and to the wells assigned as virus control. In parallel, 25 μL of culture medium was added to the cell controls. Next, the plates were incubated for 3 days in a fully humidified incubator (37° C., 5% CO2). After 3 days, the supernatant was removed from the wells and the cells were washed twice with ice-cold PBS (˜100 μL). The cell pellets within the 96-well plates were stored at −80° C. for at least 1 day. Next, RNA was extracted using the Cells-to-CT™ lysis kit, according to the manufacturer's guideline (Life Technologies). The cell lysates can be stored at −80° C. or immediately used in the reverse transcription step.
(§3) In preparation of the reverse transcription step, mix A (table 3A) was prepared and 7.57 μL/well was dispensed in a 96-well plate. After addition of 5 μL of the cell lysates, a five minute denaturation step at 75° C. was performed (table 3B). Afterwards, 7.43 μL of mix B was added (table 3C) and the reverse transcription step was initiated (table 3D) to generate cDNA.
(§4) Finally, a RT-qPCR mix was prepared, mix C (table 4A), and 22.02 μL/well was dispensed in 96-well LightCycler qPCR plates to which 3 μL of cDNA was added and the qPCR was performed according to the conditions in table 4B on a LightCycler 480.
(§5) Using the LightCycler software and an in-house LIMS system, dose response curves for each compound were calculated and the half maximal effective concentration (EC50) and the half maximal cytotoxic concentration (CC50) were determined (Tables 5-8).

The next data set has as its system DENV-1 strain TC974#666. The data set can be described thus: Tetravalent RT-qPCR assay, serotype 1. The class given is cell-based, Dengue virus. The following applies: for pEC50: Dengue virus, DENV1, Vero, 72 h, RT-qPCR serotype 1 TC974#666, Protocol A, Vero cells, day 3, read-out: EC50; for SI: RT-qPCR serotype 1 TC974#666. As to the method:
as §1, §2, §3, §4, §5
For orientation: In qPCR the cycle at which signal appears reflects the starting amount.

For another data set, the system named is DENV-2 strain 16681. The data set can be described thus: Tetravalent RT-qPCR assay, serotype 2. Type of data set: cell-based, Dengue virus. The conditions noted are these: for pEC50: Dengue virus, DENV2, Vero, 72 h, RT-qPCR serotype 2 16681, Protocol A, Vero cells, day 3; for SI: RT-qPCR serotype 2 16681. As to the method:
as §1, §2, §3, §4, §5

In another data set the test system is DENV-4 strain H241. As to the kind of experiment: Tetravalent RT-qPCR assay, serotype 4. The following applies: for pEC50: Dengue virus, DENV4, Vero, 72 h, RT-qPCR serotype 4 H241, Protocol A, Vero cells, day 3; for SI: RT-qPCR serotype 4 H241. The class given is cell-based, Dengue virus. As to the method:
as §1, §2, §3, §4, §5

Another data set in a line: in vitro. The conditions noted are these: African green monkey.

As to `COc1cc(NC(C(=O)c2c[nH]c3c(C)cc(Cl)cc23)c2ccc(F)cc2OC)cc(OCCO)c1` (single isomer, unassigned) [Compound 1B], the CC50 with Vero cells worked out at 11000 nM. In the data set with DENV-2 16681 strain, the pEC50 is 7.14 and the SI stood at 148.
For `COc1cc(NC(C(=O)c2c[nH]c3cc(OC)c(Cl)cc23)c2ccc(F)cc2OC)cc(OCCO)c1` (single isomer, unassigned) [Compound 2B], the CC50 with Vero cells was 11000 nM. In the data set with DENV-2 16681 strain, the pEC50 is 6.89 and the SI amounted to 85.
Consider `COc1cc(NC(C(=O)c2c[nH]c3cc(F)c(C)cc23)c2ccc(F)cc2OC)cc(OCCO)c1` (single isomer, unassigned) [Compound 3A], for which the pEC50 with DENV-3 strain H87 was 7.66; with DENV-1 strain TC974#666 it was 8.40; in the data set with DENV-2 strain 16681 it was 8.80; in the data set on DENV-4 strain H241 it was 6.68; in the data set on DENV-2 16681 strain, 8.96. The SI came out at 42 in the data set on DENV-3 strain H87; 748 in the data set with DENV-1 strain TC974#666; 1610 in the data set with DENV-2 strain 16681; 11 in the data set with DENV-4 strain H241; 3230 with DENV-2 16681 strain. The CC50 in the data set on Vero cells came to 3800 nM.
As to `COc1cc(NC(C(=O)c2c[nH]c3cc(F)c(C)cc23)c2ccc(F)cc2OC)cc(OCCO)c1` (single isomer, unassigned) [Compound 3B], the CC50 with Vero cells was 8000 nM. In the data set on DENV-2 16681 strain, this compound showed a pEC50 of 6.60 and an SI of 31.
Taken in the same sequence, the figures for `COc1cc(NC(C(=O)c2c[nH]c3ccc(C)cc23)c2ccc(F)cc2OC)cc(OCCO)c1` (single isomer, unassigned) [Compound 5B] were 11000 nM, 6.09 and 14.
Turning to `COc1cc(NC(C(=O)c2c[nH]c3cc4c(cc23)CCO4)c2ccc(F)cc2OC)cc(OCCO)c1` (single isomer, unassigned) [Compound 7B], in the data set on Vero cells, the CC50 turned out to be 12000 nM. In the data set with DENV-2 16681 strain, the pEC50 is 6.20 and the SI is 19.
Taken in the same sequence, the figures for `COc1cc(NC(C(=O)c2c[nH]c3c4c(ccc23)OCC4)c2ccc(F)cc2OC)cc(OCCO)c1` (single isomer, unassigned) [Compound 8B] were 12000 nM, 6.09 and 14.
With `COc1cc(NC(C(=O)c2c[nH]c3cc4c(cc23)CCO4)c2ccc(Cl)cc2OC)cc(OCCO)c1` (single isomer, unassigned) [Compound 10B], the pEC50 is 7.66 with DENV-3 strain H87; 8.49 with DENV-1 strain TC974#666; 9.40 with DENV-2 strain 16681; 6.96 with DENV-4 strain H241; 9.49 in the data set with DENV-2 16681 strain. For the same compound, the SI is given as 316 in the data set with DENV-3 strain H87; 3340 with DENV-1 strain TC974#666; 23600 in the data set with DENV-2 strain 16681; above 29 in the data set with DENV-4 strain H241; 19700 with DENV-2 16681 strain. In addition, in the data set with Vero cells, the CC50 was found to be 9500 nM.
For the compound `COc1cc(NC(C(=O)c2c[nH]c3c4c(ccc23)OCC4)c2ccc(Cl)cc2OC)cc(OCCO)c1` (single isomer, unassigned) [Compound 11B], the CC50 in the data set with Vero cells was found to be 8200 nM. Further, in the data set on DENV-2 16681 strain, the pEC50 is 6.77 and the SI was 49.
With `[2H]C(Nc1cc(OC)cc(OCCO)c1)(C(=O)c1c[nH]c2cc(F)ccc12)c1ccc(Cl)cc1OC` (single isomer, unassigned) [Compound 13A-D], the pEC50 is 7.44 with DENV-3 strain H87; 8.28 in the data set on DENV-1 strain TC974#666; 9.21 in the data set with DENV-2 strain 16681; 6.68 in the data set on DENV-4 strain H241; 9.34 in the data set with DENV-2 16681 strain. The SI in the data set with DENV-3 strain H87 is above 96; in the data set on DENV-1 strain TC974#666, 3070; with DENV-2 strain 16681 it was above 8520; in the data set on DENV-4 strain H241, 24; in the data set with DENV-2 16681 strain it was 24300. In addition, in the data set “in vitro”, the CC50 is 11000 nM.
With `[2H]C(Nc1cc(OC)cc(OCCO)c1)(C(=O)c1c[nH]c2cc(F)ccc12)c1ccc(Cl)cc1OC` (single isomer, unassigned) [Compound 13B-D], the CC50 in the data set with Vero cells turned out to be 9600 nM. Moreover, in the data set with DENV-2 16681 strain, the pEC50 was 6.77 and the SI amounted to 54.
Regarding `COc1cc(NC(C(=O)c2c[nH]c3cc(F)ccc23)c2ccc(Cl)cc2OC)cc(OCCOP(=O)(O)O)c1` (single isomer, unassigned) [Compound 13B-P], the CC50 in the data set with Vero cells turned out to be 11000 nM. In addition, in the data set on DENV-2 16681 strain, the pEC50 is 7.89 and the SI is 822.
Take `[2H]C(Nc1cc(OC)cc(OCCO)c1)(C(=O)c1c[nH]c2cc(OC)c(C)cc12)c1ccc(Cl)cc1OC` (single isomer, unassigned) [Compound 14B-D]: the CC50 with Vero cells turned out to be 6000 nM. Moreover, in the data set with DENV-2 16681 strain, the pEC50 is 6.96 and the SI is listed as 52.
In the data set with Vero cells, `COc1cc(NC(C(=O)c2c[nH]c3ccc(S(F)(F)(F)(F)F)cc23)c2ccc(Cl)cc2OC)cc(OCCO)c1` (single isomer, unassigned) [Compound 15B] yielded a CC50 of 5800 nM. Moreover, in the data set on DENV-2 16681 strain, the pEC50 is 7.89 and the SI was 460.
